Patent US12281121B2, “N-containing heteroaryl derivative and pharmaceutical composition comprising same as active ingredient for prevention or treatment of cancer” (VORONOI Inc., priority 2019, dated 2025)

How the values were obtained:
[1] = target: T1, TRKB (Homo sapiens, UniProt Q16620); experiment: ScanMAX Kinase analysis panel (DiscoverX); format: binding; conditions: read-out: adjusted percentage (% control)
T1 construct: purchased DiscoverX ScanMAX Kinase analysis panel
Method: (§1) The following experiment was performed in order to evaluate the inhibitory activity of the compound according to the present invention against more enzymes. Specifically, for Examples 1 and 3 selected among the Example compounds of the present invention, the enzyme (kinase) selectivity was set to be measured by commissioning DiscoverX, and an experiment was conducted using a ScanMAX™ Kinase analysis panel. In this case, the concentration of the drug treated with the enzyme was set to 1 μM in DMSO, the adjusted percentage (% control) was determined in the same manner as in the following Equation 1, and the results are shown in the following Table 3. (Example compound−Positive control)/(Negative control−Positive control)×100 [Equation 1]
(§2) In addition, the enzyme selectivity of the present invention was determined to be active against the corresponding enzyme when the adjusted percentage was <35% (that is, less than 35%).

[2] = test system: FLT3(ITD, F691L); experiment: ScanMAX Kinase analysis panel (DiscoverX); format: binding; conditions: 1 μM
Method: as §1, §2

[3] = test system: Ba/F3 KIF5B-RET (V804M) cells; experiment: Cell proliferation inhibition, CellTiter-Glo; format: cell-based; conditions: Mus musculus, BaF3, 72 hours
Method in brief: (§3)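 Ba/F3 lines (naive or RET-fusion-transduced, IL-3 medium) and LC-2/ad cells exposed 72 h to compound, 12 three-fold dilutions spanning 0.3 nM–50 μM final. Viability read by CellTiter-Glo luminescence, in triplicate; GI50 derived from growth ratio (%) versus control.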

[4] = test system: Ba/F3 KIF5B-RET (WT) cells; experiment: Cell proliferation inhibition, CellTiter-Glo; format: cell-based; conditions: Mus musculus, BaF3, 72 hours
Method in brief: as §3

[5] = test system: Ba/F3 (naive) cells; experiment: Cell proliferation inhibition, CellTiter-Glo; format: cell-based; conditions: Mus musculus, BaF3; Ba/F3 not transduced, 72 hours
Method in brief: as §3

[6] = test system: LC-2/ad cells (with CCDC6-RET gene); experiment: Cell proliferation inhibition, CellTiter-Glo; format: cell-based; conditions: Homo sapiens; LC-2/ad lung cancer cell line, 72 hours
Method in brief: as §3

[7] = test system: Ba/F3 CCDC6-RET (WT) cells; experiment: Cell proliferation inhibition, CellTiter-Glo; format: cell-based; conditions: BaF3/CCDC6-RET, 72 hours
Method in brief: as §3

[8] = test system: TT cells; experiment: Cell proliferation inhibition, CellTiter-Glo; format: cell-based; conditions: Homo sapiens; TT thyroid cancer cell line, 72 hours
[9] = target: RET (V804M) (Homo sapiens, UniProt P07949, V804M); experiment: RET enzyme inhibitory ability, ADP-Glo kinase assay; format: biochemical; conditions: ATP 10 μM, 25° C., 1 hour
RET (V804M), sequence (P07949 658-1114 V804M limits assumed): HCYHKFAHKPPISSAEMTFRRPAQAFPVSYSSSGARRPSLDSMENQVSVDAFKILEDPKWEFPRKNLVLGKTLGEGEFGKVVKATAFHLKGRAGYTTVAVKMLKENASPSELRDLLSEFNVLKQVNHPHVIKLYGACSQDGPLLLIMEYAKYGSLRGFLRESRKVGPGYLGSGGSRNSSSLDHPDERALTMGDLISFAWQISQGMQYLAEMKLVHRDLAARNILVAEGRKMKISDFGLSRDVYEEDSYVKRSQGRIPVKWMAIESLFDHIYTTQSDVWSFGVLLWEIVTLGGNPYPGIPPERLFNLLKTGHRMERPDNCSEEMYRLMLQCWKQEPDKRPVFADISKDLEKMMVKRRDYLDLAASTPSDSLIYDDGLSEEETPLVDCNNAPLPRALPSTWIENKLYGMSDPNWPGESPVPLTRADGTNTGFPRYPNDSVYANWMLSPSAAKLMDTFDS
Method in brief: (§4)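 Purified human RET (658-end, 0.8 ng) was reacted with 10 μM ATP and substrate 1 h at 25°C in 40 mM Tris-HCl pH 7.4, 20 mM MgCl2, 0.5 mg/mL BSA, 50 μM DTT. ADP-Glo luminescence was normalised to solvent control; IC50 (nM) from 3 datasets.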

[10] = target: T2, CCDC6-RET (Homo sapiens, UniProt P07949); experiment: as above; format: biochemical; conditions: ATP 10 μM, 25° C., 1 hour
T2 construct: the other entry of the earlier key: CCDC6 (Q16204, Coiled-coil domain-containing protein 6)
T2 sequence (P07949 with tags, fused parts or gaps): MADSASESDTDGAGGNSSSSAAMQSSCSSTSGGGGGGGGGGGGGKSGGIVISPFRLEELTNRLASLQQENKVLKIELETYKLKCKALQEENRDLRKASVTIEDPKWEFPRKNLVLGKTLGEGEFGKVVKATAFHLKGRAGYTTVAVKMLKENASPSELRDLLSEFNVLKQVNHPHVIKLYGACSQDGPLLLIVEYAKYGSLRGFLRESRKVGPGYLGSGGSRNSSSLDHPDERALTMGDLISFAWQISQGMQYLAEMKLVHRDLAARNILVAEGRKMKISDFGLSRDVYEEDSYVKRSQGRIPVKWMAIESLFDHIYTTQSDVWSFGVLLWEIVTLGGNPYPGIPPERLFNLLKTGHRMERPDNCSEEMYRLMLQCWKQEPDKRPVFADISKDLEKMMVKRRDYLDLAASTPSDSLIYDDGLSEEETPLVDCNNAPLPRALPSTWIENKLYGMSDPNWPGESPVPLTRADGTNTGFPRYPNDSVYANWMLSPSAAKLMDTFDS
Method in brief: as §4

[11] = target: T3, RET (WT) (Homo sapiens, UniProt P07949); experiment: as above; format: biochemical; conditions: ATP 10 μM, 25° C., 1 hour
T3 construct: human RET (658-end, SIGNALCHEM); purchased SIGNALCHEM
T3 sequence (P07949 658-1114 limits assumed): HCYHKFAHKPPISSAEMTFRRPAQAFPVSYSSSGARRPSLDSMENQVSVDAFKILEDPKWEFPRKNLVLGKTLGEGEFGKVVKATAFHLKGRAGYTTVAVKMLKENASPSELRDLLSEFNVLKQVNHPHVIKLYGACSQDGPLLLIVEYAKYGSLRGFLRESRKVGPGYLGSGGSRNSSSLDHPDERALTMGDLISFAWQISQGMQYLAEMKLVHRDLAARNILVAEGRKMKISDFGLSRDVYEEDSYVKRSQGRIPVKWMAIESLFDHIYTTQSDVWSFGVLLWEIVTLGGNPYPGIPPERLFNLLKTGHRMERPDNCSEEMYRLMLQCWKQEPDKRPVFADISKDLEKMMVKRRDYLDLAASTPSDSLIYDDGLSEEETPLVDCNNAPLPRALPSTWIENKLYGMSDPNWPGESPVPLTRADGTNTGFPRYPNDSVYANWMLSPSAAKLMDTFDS
Method in brief: as §4

T1 sequence (Q16620 32-822): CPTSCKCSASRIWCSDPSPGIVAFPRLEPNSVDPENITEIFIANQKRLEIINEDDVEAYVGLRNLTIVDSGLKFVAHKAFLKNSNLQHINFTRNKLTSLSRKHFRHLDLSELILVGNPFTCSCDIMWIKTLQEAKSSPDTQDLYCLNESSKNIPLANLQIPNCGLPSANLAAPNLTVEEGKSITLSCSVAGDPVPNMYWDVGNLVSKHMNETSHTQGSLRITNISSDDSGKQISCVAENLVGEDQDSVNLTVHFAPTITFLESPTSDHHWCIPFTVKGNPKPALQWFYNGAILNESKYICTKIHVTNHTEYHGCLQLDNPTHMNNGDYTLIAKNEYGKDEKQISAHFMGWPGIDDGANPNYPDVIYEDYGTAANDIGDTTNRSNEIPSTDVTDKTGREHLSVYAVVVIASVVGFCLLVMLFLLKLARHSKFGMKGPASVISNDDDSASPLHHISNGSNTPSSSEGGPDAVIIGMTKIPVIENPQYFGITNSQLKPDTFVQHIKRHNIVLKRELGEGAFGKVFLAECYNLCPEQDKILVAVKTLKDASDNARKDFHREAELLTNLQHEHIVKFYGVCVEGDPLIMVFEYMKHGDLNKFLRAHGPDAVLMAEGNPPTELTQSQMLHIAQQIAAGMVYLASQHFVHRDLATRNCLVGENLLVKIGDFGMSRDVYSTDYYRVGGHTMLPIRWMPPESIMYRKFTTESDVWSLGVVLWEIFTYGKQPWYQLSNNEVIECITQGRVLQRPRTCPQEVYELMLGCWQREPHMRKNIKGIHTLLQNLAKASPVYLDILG

Structure (SMILES)	remaining binding at 1 µM [1] [%]	adjusted percentage (% control) [2] [%]	GI50 [3] [nM]	GI50 [4] [nM]	GI50 [5] [nM]	GI50 [6] [nM]	GI50 [7] [nM]	GI50 [8] [nM]	IC50 [9] [nM]	IC50 [10] [nM]	IC50 [11] [nM]
COc1ccc(CN2C3CC2CN(c2ccc(-c4nc(Nc5cc(C)[nH]n5)c5occc5n4)cn2)C3)cn1 [Example 1, 2-(6-(6-((6-methoxypyridin-3-yl)methyl)-3,6-diazabicyclo[3.1.1]heptan-3-yl)pyridin-3-yl)-N-(5-methyl-1H-pyrazol-3-yl)furo[3,2-d]pyrimidin-4-amine]	1.6	1.4	19	19	4900	14	59	88	2.2	1.8	18
COc1ccc(CN2C3CC2CN(c2ccc(-c4nc(Nc5cc(C)[nH]n5)c5ccccc5n4)cn2)C3)cn1 [Example 3, 2-(6-(6-((6-methoxypyridin-3-yl)methyl)-3,6-diazabicyclo [3.1.1]heptan-3-yl)pyridin-3-yl)-N-(5-methyl-1H-pyrazol-3-yl)quinazolin-4-amine]	2.1	8.8	3	13	2300	60	51	30	0.7	0.9	7
